How the values were obtained:
[1] = system: a variety of test species; assay: Post-emergence herbicidal activity (glasshouse, sprayed after 8 days cultivation, evaluated after 13 days); assay type: in vivo; design: key: 5=total damage to plant; 0=no damage to plant; settings: rate 1000 g/Ha, scale 0-5
In short: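 Pot-grown plants, 8 days after sowing, were sprayed with compound formulated in acetone/water (50:50) with 0.5% Tween 20. Glasshouse conditions 24/16° C day/night, 14 h light, 65% humidity; damage scored after 13 days on a 0 (none) to 5 (total) scale.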

[2] = system: a variety of test species; assay: Pre-emergence herbicidal activity (glasshouse, sprayed one day after sowing, evaluated after 13 days); assay type: in vivo; design: key: 5=total damage to plant; 0=no damage to plant; settings: application pre-emergence, rate 1000 g/Ha, scale 0-5
In short: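 Damage rated 13 days post-treatment on a 0-5 scale, 5 meaning total plant damage. Pots were sprayed pre-emergence, one day after sowing, with an acetone/water-derived aqueous spray containing 0.5% Tween 20. Plants grew under 14 h light, 65% humidity, 24/16 °C, watered twice daily.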

SMILES: CCCC(C)(C)c1cc(N2C(=O)C(Cl)=C(C)C2O)no1 (stereo not shown) [A37]
- melting point: 96 to 98 °C
- ABUTH (Abutilon theophrasti) damage score, application post-emergence [1]: 5
- ALOMY (Alopecurus myosuroides) damage score, application post-emergence [1]: 5
- AMARE (Amaranthus retroflexus) damage score, application post-emergence [1]: 5
- ECHCG (Echinochloa crus-galli) damage score, application post-emergence [1]: 5
- SETFA (Setaria faberi) damage score, application post-emergence [1]: 5
- ZEAMX (Zea mays) damage score, application post-emergence [1]: 3
- Pre-emergence herbicidal damage score, ABUTH [2]: 5
- Pre-emergence herbicidal damage score, ALOMY [2]: 4
- Pre-emergence herbicidal damage score, AMARE [2]: 5
- Pre-emergence herbicidal damage score, ECHCG [2]: 5
- Pre-emergence herbicidal damage score, SETFA [2]: 4
- Pre-emergence herbicidal damage score, ZEAMX [2]: 1

SMILES: CCCCC(C)(C)c1cc(N2C(=O)C(Cl)=C(C)C2O)no1 (stereo not shown) [A38]
- melting point: 75 to 77 °C
- ABUTH (Abutilon theophrasti) damage score, application post-emergence [1]: 5
- ALOMY (Alopecurus myosuroides) damage score, application post-emergence [1]: 5
- AMARE (Amaranthus retroflexus) damage score, application post-emergence [1]: 5
- ECHCG (Echinochloa crus-galli) damage score, application post-emergence [1]: 5
- SETFA (Setaria faberi) damage score, application post-emergence [1]: 5
- ZEAMX (Zea mays) damage score, application post-emergence [1]: 2
- Pre-emergence herbicidal damage score, ABUTH [2]: 1
- Pre-emergence herbicidal damage score, ALOMY [2]: 3
- Pre-emergence herbicidal damage score, AMARE [2]: 5
- Pre-emergence herbicidal damage score, ECHCG [2]: 5
- Pre-emergence herbicidal damage score, SETFA [2]: 2
- Pre-emergence herbicidal damage score, ZEAMX [2]: 1

SMILES: CC1=C(Cl)C(=O)N(c2cc(C(C)(C)CO)on2)C1O (stereo not shown) [A39]
- melting point: 130 to 132 °C
- ABUTH (Abutilon theophrasti) damage score, application post-emergence [1]: 4
- ALOMY (Alopecurus myosuroides) damage score, application post-emergence [1]: 3
- AMARE (Amaranthus retroflexus) damage score, application post-emergence [1]: 5
- ECHCG (Echinochloa crus-galli) damage score, application post-emergence [1]: 5
- SETFA (Setaria faberi) damage score, application post-emergence [1]: 1
- ZEAMX (Zea mays) damage score, application post-emergence [1]: 1
- Pre-emergence herbicidal damage score, ABUTH [2]: 1
- Pre-emergence herbicidal damage score, ALOMY [2]: 1
- Pre-emergence herbicidal damage score, AMARE [2]: 4
- Pre-emergence herbicidal damage score, ECHCG [2]: 3
- Pre-emergence herbicidal damage score, SETFA [2]: 0
- Pre-emergence herbicidal damage score, ZEAMX [2]: 1

SMILES: CCC(C)(C)c1onc(N2C(=O)C(Cl)=C(C)C2O)c1C#N (stereo not shown) [A40]
- melting point: 166 to 168 °C
- ABUTH (Abutilon theophrasti) damage score, application post-emergence [1]: 5
- ALOMY (Alopecurus myosuroides) damage score, application post-emergence [1]: 4
- AMARE (Amaranthus retroflexus) damage score, application post-emergence [1]: 5
- ECHCG (Echinochloa crus-galli) damage score, application post-emergence [1]: 5
- SETFA (Setaria faberi) damage score, application post-emergence [1]: 5
- ZEAMX (Zea mays) damage score, application post-emergence [1]: 3
- Pre-emergence herbicidal damage score, ABUTH [2]: 4
- Pre-emergence herbicidal damage score, ALOMY [2]: 3
- Pre-emergence herbicidal damage score, AMARE [2]: 5
- Pre-emergence herbicidal damage score, ECHCG [2]: 5
- Pre-emergence herbicidal damage score, SETFA [2]: 5
- Pre-emergence herbicidal damage score, ZEAMX [2]: 2

SMILES: C=CC(C)(C)c1cc(N2C(=O)C(Cl)=C(C)C2O)no1 (stereo not shown) [A41]
- melting point: 114 to 116 °C
- ABUTH (Abutilon theophrasti) damage score, application post-emergence [1]: 5
- ALOMY (Alopecurus myosuroides) damage score, application post-emergence [1]: 5
- AMARE (Amaranthus retroflexus) damage score, application post-emergence [1]: 5
- ECHCG (Echinochloa crus-galli) damage score, application post-emergence [1]: 5
- SETFA (Setaria faberi) damage score, application post-emergence [1]: 5
- ZEAMX (Zea mays) damage score, application post-emergence [1]: 4
- Pre-emergence herbicidal damage score, ABUTH [2]: 5
- Pre-emergence herbicidal damage score, ALOMY [2]: 4
- Pre-emergence herbicidal damage score, AMARE [2]: 5
- Pre-emergence herbicidal damage score, ECHCG [2]: 4
- Pre-emergence herbicidal damage score, SETFA [2]: 5
- Pre-emergence herbicidal damage score, ZEAMX [2]: 3

SMILES: CC1=C(Cl)C(=O)N(c2cc(C(C)(C)C#N)on2)C1O (stereo not shown) [A42]
- melting point: 145 to 147 °C
- ABUTH (Abutilon theophrasti) damage score, application post-emergence [1]: 5
- ALOMY (Alopecurus myosuroides) damage score, application post-emergence [1]: 5
- AMARE (Amaranthus retroflexus) damage score, application post-emergence [1]: 5
- ECHCG (Echinochloa crus-galli) damage score, application post-emergence [1]: 5
- SETFA (Setaria faberi) damage score, application post-emergence [1]: 5
- ZEAMX (Zea mays) damage score, application post-emergence [1]: 4
- Pre-emergence herbicidal damage score, ABUTH [2]: 5
- Pre-emergence herbicidal damage score, ALOMY [2]: 4
- Pre-emergence herbicidal damage score, AMARE [2]: 5
- Pre-emergence herbicidal damage score, ECHCG [2]: 4
- Pre-emergence herbicidal damage score, SETFA [2]: 5
- Pre-emergence herbicidal damage score, ZEAMX [2]: 2

SMILES: CCC(C)(CC)c1cc(N2C(=O)C(Cl)=C(C)C2O)no1 (stereo not shown) [A43]
- melting point: 104 to 106 °C
- ABUTH (Abutilon theophrasti) damage score, application post-emergence [1]: 5
- ALOMY (Alopecurus myosuroides) damage score, application post-emergence [1]: 5
- AMARE (Amaranthus retroflexus) damage score, application post-emergence [1]: 5
- ECHCG (Echinochloa crus-galli) damage score, application post-emergence [1]: 5
- SETFA (Setaria faberi) damage score, application post-emergence [1]: 5
- ZEAMX (Zea mays) damage score, application post-emergence [1]: 2
- Pre-emergence herbicidal damage score, ABUTH [2]: 4
- Pre-emergence herbicidal damage score, ALOMY [2]: 4
- Pre-emergence herbicidal damage score, AMARE [2]: 5
- Pre-emergence herbicidal damage score, ECHCG [2]: 4
- Pre-emergence herbicidal damage score, SETFA [2]: 5
- Pre-emergence herbicidal damage score, ZEAMX [2]: 2

SMILES: CC1=C(Cl)C(=O)N(c2noc(C(C)C)c2C#N)C1O (stereo not shown) [A44, 3-(4-chloro-2-hydroxy-3-methyl-5-oxo-2H-pyrrol-1-yl)-5-isopropyl-isoxazole-4-carbonitrile]
- melting point: 117 to 119 °C
- ABUTH (Abutilon theophrasti) damage score, application post-emergence [1]: 5
- ALOMY (Alopecurus myosuroides) damage score, application post-emergence [1]: 5
- AMARE (Amaranthus retroflexus) damage score, application post-emergence [1]: 5
- ECHCG (Echinochloa crus-galli) damage score, application post-emergence [1]: 5
- SETFA (Setaria faberi) damage score, application post-emergence [1]: 5
- ZEAMX (Zea mays) damage score, application post-emergence [1]: 4
- Pre-emergence herbicidal damage score, ABUTH [2]: 5
- Pre-emergence herbicidal damage score, ALOMY [2]: 4
- Pre-emergence herbicidal damage score, AMARE [2]: 5
- Pre-emergence herbicidal damage score, ECHCG [2]: 4
- Pre-emergence herbicidal damage score, SETFA [2]: 5
- Pre-emergence herbicidal damage score, ZEAMX [2]: 3

SMILES: CCC(C)(CC)c1onc(N2C(=O)C(Cl)=C(C)C2O)c1C#N (stereo not shown) [A45]
- melting point: 129 to 130 °C
- ABUTH (Abutilon theophrasti) damage score, application post-emergence [1]: 5
- ALOMY (Alopecurus myosuroides) damage score, application post-emergence [1]: 5
- AMARE (Amaranthus retroflexus) damage score, application post-emergence [1]: 5
- ECHCG (Echinochloa crus-galli) damage score, application post-emergence [1]: 5
- SETFA (Setaria faberi) damage score, application post-emergence [1]: 5
- ZEAMX (Zea mays) damage score, application post-emergence [1]: 3
- Pre-emergence herbicidal damage score, ABUTH [2]: 4
- Pre-emergence herbicidal damage score, ALOMY [2]: 3
- Pre-emergence herbicidal damage score, AMARE [2]: 5
- Pre-emergence herbicidal damage score, ECHCG [2]: 3
- Pre-emergence herbicidal damage score, SETFA [2]: 4
- Pre-emergence herbicidal damage score, ZEAMX [2]: 2

SMILES: CCCC(C)(C)c1onc(N2C(=O)C(Cl)=C(C)C2O)c1C#N (stereo not shown) [A46]
- melting point: 113 to 115 °C
- ABUTH (Abutilon theophrasti) damage score, application post-emergence [1]: 5
- ALOMY (Alopecurus myosuroides) damage score, application post-emergence [1]: 5
- AMARE (Amaranthus retroflexus) damage score, application post-emergence [1]: 5
- ECHCG (Echinochloa crus-galli) damage score, application post-emergence [1]: 5
- SETFA (Setaria faberi) damage score, application post-emergence [1]: 5
- ZEAMX (Zea mays) damage score, application post-emergence [1]: 3
- Pre-emergence herbicidal damage score, ABUTH [2]: 2
- Pre-emergence herbicidal damage score, ALOMY [2]: 4
- Pre-emergence herbicidal damage score, AMARE [2]: 5
- Pre-emergence herbicidal damage score, ECHCG [2]: 4
- Pre-emergence herbicidal damage score, SETFA [2]: 4
- Pre-emergence herbicidal damage score, ZEAMX [2]: 3

SMILES: CCCCC(C)(C)c1onc(N2C(=O)C(Cl)=C(C)C2O)c1C#N (stereo not shown) [A47]
- melting point: 99 to 101 °C
- ABUTH (Abutilon theophrasti) damage score, application post-emergence [1]: 5
- ALOMY (Alopecurus myosuroides) damage score, application post-emergence [1]: 5
- AMARE (Amaranthus retroflexus) damage score, application post-emergence [1]: 5
- ECHCG (Echinochloa crus-galli) damage score, application post-emergence [1]: 5
- SETFA (Setaria faberi) damage score, application post-emergence [1]: 5
- ZEAMX (Zea mays) damage score, application post-emergence [1]: 2
- Pre-emergence herbicidal damage score, ABUTH [2]: 0
- Pre-emergence herbicidal damage score, ALOMY [2]: 2
- Pre-emergence herbicidal damage score, AMARE [2]: 5
- Pre-emergence herbicidal damage score, ECHCG [2]: 2
- Pre-emergence herbicidal damage score, SETFA [2]: 1
- Pre-emergence herbicidal damage score, ZEAMX [2]: 2

SMILES: CCC(C)c1onc(N2C(=O)C(Cl)=C(C)C2O)c1C#N (stereo not shown) [A49]
- melting point: 107 to 109 °C
- ABUTH (Abutilon theophrasti) damage score, application post-emergence [1]: 5
- ALOMY (Alopecurus myosuroides) damage score, application post-emergence [1]: 4
- AMARE (Amaranthus retroflexus) damage score, application post-emergence [1]: 5
- ECHCG (Echinochloa crus-galli) damage score, application post-emergence [1]: 5
- SETFA (Setaria faberi) damage score, application post-emergence [1]: 5
- ZEAMX (Zea mays) damage score, application post-emergence [1]: 2
- Pre-emergence herbicidal damage score, ABUTH [2]: 5
- Pre-emergence herbicidal damage score, ALOMY [2]: 3
- Pre-emergence herbicidal damage score, AMARE [2]: 5
- Pre-emergence herbicidal damage score, ECHCG [2]: 4
- Pre-emergence herbicidal damage score, SETFA [2]: 5
- Pre-emergence herbicidal damage score, ZEAMX [2]: 1

SMILES: CC1=C(Br)C(=O)N(c2noc(C(C)(C)C)c2C#N)C1O (stereo not shown) [A50]
- melting point: 182 to 184 °C
- ABUTH (Abutilon theophrasti) damage score, application post-emergence [1]: 5
- ALOMY (Alopecurus myosuroides) damage score, application post-emergence [1]: 4
- AMARE (Amaranthus retroflexus) damage score, application post-emergence [1]: 5
- ECHCG (Echinochloa crus-galli) damage score, application post-emergence [1]: 5
- SETFA (Setaria faberi) damage score, application post-emergence [1]: 5
- ZEAMX (Zea mays) damage score, application post-emergence [1]: 3
- Pre-emergence herbicidal damage score, ABUTH [2]: 5
- Pre-emergence herbicidal damage score, ALOMY [2]: 3
- Pre-emergence herbicidal damage score, AMARE [2]: 5
- Pre-emergence herbicidal damage score, ECHCG [2]: 4
- Pre-emergence herbicidal damage score, SETFA [2]: 5
- Pre-emergence herbicidal damage score, ZEAMX [2]: 3

Source: patent publication US9936701B2, “Herbicidal compounds” (Syngenta Participations AG, priority 2013, dated 2018)
